Our source for the IC50 values is article PMC6691587, “New CXCR1/CXCR2 inhibitors represent an effective treatment for kidney or head and neck cancers sensitive or refractory to reference treatments” (Theranostics, 2019).

Assay type in all cases: cell-based, human
In experiment [1] the test system is CAL27. Put plainly: XTT cell viability assay, CAL27 HNSCC cells. Conditions: Homo sapiens, CAL-27; XTT assay, 48 h; SD 10%; mean of three experiments; read-out: IC50 27 (HNSCC). Here is the method: (§1) Fifty microliters of sodium 3′-[1-phenylaminocarbonyl)-3,4-tetrazolium]-bis(4-methoxy-6-nitro) benzene sulfonic acid hydrate (XTT) reagent was added to each well. The assay is based on the cleavage of the yellow tetrazolium salt XTT to form an orange formazan dye by metabolically active cells. This bio-reduction occurs in viable cells only and is related to NAD(P)H production through glycolysis. Therefore, the amount of formazan dye measured at 490 nm directly correlated with the number of metabolically active cells reflecting cell proliferation and viability. Each assay was performed in quadruplicate.

Experiment [2] concerns CAL33. Put plainly: XTT cell viability assay, CAL33 HNSCC cells. Conditions: Homo sapiens, CAL-33; XTT assay, 48 h; SD 10%; mean of three experiments; read-out: IC50 33 (HNSCC). Here is the method:
as §1
(Formazan colour is commonly taken as a measure of viable cells.)

The subject of experiment [3] is A498. Briefly: XTT cell viability assay, A498 RCC cells. Conditions: Homo sapiens, A498; XTT assay, 48 h; SD 10%; mean of three experiments; read-out: IC50 498 (Kidney RCC). Here is the method: as §1
For experiment [4], the system named is RCC4. Briefly: XTT cell viability assay, RCC4 RCC cells. Particulars: Homo sapiens, RCC4, 48 h, SD 10%, mean of three experiments, read-out: IC50 R4 (Kidney RCC). Here is the method:
as §1

Experiment [5] has as its system 786-O. Briefly: XTT cell viability assay, 786-O RCC cells. Particulars: Homo sapiens, 786-0; XTT assay, 48 h; SD 10%; mean of three experiments; read-out: IC50 786 (Kidney RCC). On the procedure: as §1
Experiment [6] relates to MDA-MD-231. Put plainly: XTT cell viability assay, breast cancer cells. Conditions: Homo sapiens, 48 h, SD 10%, mean of three experiments. Here is the method:
as §1

For experiment [7], the system named is OCI-AML2. Put plainly: XTT cell viability assay, OCI-AML2 AML cells. Particulars: Homo sapiens, OCI-AML2, 48 h, SD 10%, mean of three experiments, read-out: IC50 L2 (AML). On the procedure:
as §1

Experiment [8] concerns OCI-AML3. Briefly: XTT cell viability assay, OCI-AML3 AML cells. Conditions: Homo sapiens, OCI-AML-3, 48 h, SD 10%, mean of three experiments, read-out: IC50 L3 (AML). On the procedure:
as §1

Experiment [9] concerns Molm13. Briefly: XTT cell viability assay, Molm13 AML cells. Particulars: Homo sapiens, MOLM-13, 48 h, SD 10%, mean of three experiments. Here is the method: as §1
Experiment [10] concerns Molm14. Briefly: XTT cell viability assay, Molm14 AML cells. Particulars: Homo sapiens, MOLM-14, 48 h, SD 10%, mean of three experiments. Here is the method:
as §1

Experiment [11] concerns SKM1. Put plainly: XTT cell viability assay, SKM1 MDS cells. Particulars: Homo sapiens, SKM-1, 48 h, SD 10%, mean of three experiments, read-out: IC50 SK (MDS). Here is the method: as §1
The test system of experiment [12] is K562. Briefly: XTT cell viability assay, K562 CML cells. Conditions: Homo sapiens, K562, 48 h, SD 10%, mean of three experiments. Here is the method: as §1

For `O=C(Nc1ccc(Cl)cc1)Nc1ccc(Cl)cc1Cl` [C6], the IC50 (usually the concentration that inhibits the measured activity by half) in experiment [1] was 25 µM; in [2], more than 25 µM; in experiment [3], 22 µM; in experiment [4] it was more than 25 µM; in experiment [5] it was more than 25 µM; in [6], more than 25 µM. Further, the IC50 was 25 µM in experiment [7]; 22 µM in [8]; 22 µM in experiment [9]; more than 25 µM in experiment [10]; more than 25 µM in experiment [11]; 15 µM in experiment [12].

Take `Cc1ccc(NC(=S)Nc2ccccc2)cc1` [C7]: the IC50 in [1], in [2], in experiment [3], in experiment [4], in [5] and in [6] was more than 25 µM in each case. Besides, the half-maximal inhibitory concentration (IC50) in experiment [7], in [8], in [9], in experiment [10], in [11] and in experiment [12] was more than 25 µM each time.

Consider `O=C(Nc1ccccc1)Nc1nc2ccccc2s1` [C20], for which the IC50 in experiment [1], in experiment [2], in experiment [3], in experiment [4], in experiment [5] and in experiment [6] was more than 25 µM throughout. Further, the IC50 in experiment [7], in experiment [8], in [9], in experiment [10], in [11] and in [12] was more than 25 µM in each case.

In the case of `O=C(Nc1cccc(Cl)c1)Nc1ccccc1O` [C11], the IC50 in experiment [1], in experiment [2], in [3], in experiment [4], in experiment [5] and in [6] was more than 25 µM each time. For the same compound, the IC50 in [7], in experiment [8], in experiment [9], in [10], in [11] and in experiment [12] was more than 25 µM each time.

Turning to `Cc1ccc(NC(=O)Nc2ccc(Cl)cc2)cc1` [C3], the IC50 in [1], in experiment [2], in experiment [3], in [4], in experiment [5] and in experiment [6] was more than 25 µM each time. The IC50 in experiment [7], in experiment [8], in [9], in experiment [10], in experiment [11] and in experiment [12] was more than 25 µM throughout.

Turning to `O=C(Nc1ccc(Cl)cc1)Nc1nc2ccccc2s1` [C23], the IC50 in experiment [1] was more than 25 µM; in [2], more than 25 µM; in [3], 25 µM; in experiment [4] it was 20 µM; in experiment [5], more than 25 µM; in experiment [6], more than 25 µM. Moreover, the IC50 is more than 25 µM in experiment [7]; more than 25 µM in experiment [8]; more than 25 µM in [9]; more than 25 µM in [10]; more than 25 µM in [11]; 25 µM in experiment [12].

On to `O=C(Nc1nc2ccccc2[nH]1)Nc1ccccc1Cl` [C14], for which the IC50 in experiment [1], in [2], in experiment [3], in experiment [4], in [5] and in [6] was more than 25 µM throughout. The IC50 in [7], in experiment [8], in experiment [9], in [10], in experiment [11] and in experiment [12] was more than 25 µM each time.

Turning to `CCOc1ccc2nc(NC(=O)Nc3ccc(OC)cc3)sc2c1` [C33], the IC50 in experiment [1], in experiment [2], in experiment [3], in [4], in experiment [5] and in [6] was more than 25 µM throughout. Besides, the IC50 in experiment [7] was more than 25 µM; in experiment [8] it was more than 25 µM; in experiment [9], more than 25 µM; in experiment [10], 25 µM; in [11], more than 25 µM; in experiment [12], more than 25 µM.

As to `O=C(Nc1cccc(Cl)c1)Nc1nc2ccccc2[nH]1` [C15], the IC50 in experiment [1], in experiment [2], in experiment [3], in [4], in [5] and in [6] was more than 25 µM each time. Also, the IC50 in experiment [7], in experiment [8], in [9], in [10], in experiment [11] and in experiment [12] was more than 25 µM throughout.

On to `COc1ccc(NC(=O)Nc2nc3ccccc3s2)cc1` [C24], for which the IC50 in [1] is more than 25 µM; in [2] it was more than 25 µM; in experiment [3] it was more than 25 µM; in experiment [4], 15 µM; in [5], more than 25 µM; in experiment [6], more than 25 µM. For the same compound, the IC50 in [7] is more than 25 µM; in experiment [8], more than 25 µM; in [9], more than 25 µM; in experiment [10], more than 25 µM; in experiment [11], more than 25 µM; in experiment [12], 25 µM.

As to `Cc1ccc(NC(=O)Nc2cccc(Cl)c2)cc1` [C2], the IC50 in [1], in experiment [2], in experiment [3], in experiment [4], in [5] and in experiment [6] was more than 25 µM each time. The IC50 in experiment [7], in [8], in [9], in experiment [10], in [11] and in experiment [12] was more than 25 µM throughout.

Regarding `O=C(Nc1ccccc1)Nc1nc2ccccc2[nH]1` [C13], the IC50 in experiment [1] was found to be 10 µM; in [2] it was 10 µM; in experiment [3], 10 µM; in [4] it was 25 µM; in [5] it was 20 µM; in experiment [6], 12 µM. For the same compound, the IC50 is 18 µM in [7]; 25 µM in experiment [8]; 25 µM in [9]; 20 µM in experiment [10]; 25 µM in experiment [11]; 10 µM in [12].

`Cc1ccc2nc(NC(=O)Nc3cccc(Cl)c3)sc2c1` [C26]: the IC50 in [1], in [2], in [3], in experiment [4], in experiment [5] and in experiment [6] was more than 25 µM in each case. The IC50 in [7], in experiment [8], in experiment [9], in [10], in experiment [11] and in experiment [12] was more than 25 µM each time.

For the compound `Cc1ccc(NC(=O)Nc2ccccc2Cl)cc1` [C1], the IC50 in experiment [1], in [2], in experiment [3], in experiment [4], in experiment [5] and in experiment [6] was more than 25 µM each time. Further, the IC50 in [7], in [8], in experiment [9], in experiment [10], in experiment [11] and in experiment [12] was more than 25 µM in each case.

As to `S=C(Nc1ccccc1)Nc1ccc(Cl)cc1Cl` [C8], the IC50 in experiment [1], in experiment [2], in experiment [3], in experiment [4], in [5] and in [6] was more than 25 µM throughout. The IC50 in [7], in experiment [8], in [9], in experiment [10], in [11] and in experiment [12] was more than 25 µM each time.

As for `O=C(Nc1cccc(Cl)c1)Nc1ccc(Cl)cc1Cl` [C5], the IC50 in [1] was 15 µM; in [2], 25 µM; in [3] it was 22 µM; in experiment [4] it was 20 µM; in experiment [5], 22 µM; in [6], more than 25 µM. For the same compound, the half-maximal inhibitory concentration (IC50) in [7] stood at 22 µM; in [8], 20 µM; in [9], 20 µM; in experiment [10], 25 µM; in experiment [11], 22 µM; in [12], 20 µM.
